Laboratory results: US11000571B2 (priority 2016, dated 2021)
Read-outs that look alike come from different tables or passages of the source.

Legend:
[1] = test system: cultured neurons and astrocytes; conditions: cited from earlier work
[2] = test system: MMP-9 (metalloproteinase-9); parameters: species or system C57BL/6J mice; conditions: mouse, in vivo
[3] = test system: intracerebral hemorrhage (“ICH”) mouse model; parameters: species or system C57BL/6J mice; conditions: in vivo

Substance | kill of cultured neurons and astrocytes [1] | MMP9 serum levels [2] | behavioral and neurological deficits following induction of ICH (overall) [3] | circling behavior [3] | sensory response component of 28-point scale [3] | neurofunction (pilot studies) ([3]; 16 mg/kg) | sensory response component of 28-point scale ([3]; 16 mg/kg) | sensory response component of 28-point scale ([3]; 32 mg/kg)
Hemin | 60%-70% | – | – | – | – | – | – | –
PHGGGWGQPHGGGWGQ [SEQ ID NO:3] | – | diminished | efficacious at diminishing the behavioral and neurological deficits | exception | improved at statistically significant levels | improved neurofunction | improved at statistically significant levels | improved at statistically significant levels
